From ChEMBL document CHEMBL1201862, “PubChem BioAssay data set” (2004)
Activity calls are given as the source filed them.

Legend:
[1] = target: T1, Peroxisome proliferator-activated receptor gamma/Nuclear receptor coactivator 2 (Homo sapiens, UniProt P37231); format: functional
[2] = target: T2, Peroxisome proliferator-activated receptor gamma/Nuclear receptor coactivator 3 (Homo sapiens, UniProt P37231); format: functional
[3] = target: T3, Peroxisome proliferator-activated receptor gamma/Nuclear receptor coactivator 1 (Homo sapiens, UniProt P37231); format: functional
T3 sequence (P37231 whole entry): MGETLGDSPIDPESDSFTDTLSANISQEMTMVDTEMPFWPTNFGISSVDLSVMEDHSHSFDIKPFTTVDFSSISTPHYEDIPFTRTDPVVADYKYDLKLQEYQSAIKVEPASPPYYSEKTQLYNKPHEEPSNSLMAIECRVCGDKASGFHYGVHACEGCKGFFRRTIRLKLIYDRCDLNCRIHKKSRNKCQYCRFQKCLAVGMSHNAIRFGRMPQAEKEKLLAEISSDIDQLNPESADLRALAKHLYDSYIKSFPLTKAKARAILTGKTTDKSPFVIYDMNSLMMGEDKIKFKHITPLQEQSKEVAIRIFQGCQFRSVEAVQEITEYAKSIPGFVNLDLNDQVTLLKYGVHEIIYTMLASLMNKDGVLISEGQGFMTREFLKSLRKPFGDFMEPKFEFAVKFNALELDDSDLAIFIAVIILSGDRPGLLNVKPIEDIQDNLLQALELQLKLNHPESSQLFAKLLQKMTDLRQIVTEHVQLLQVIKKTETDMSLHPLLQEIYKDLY
T3 sequence (Q15788 whole entry, further chain): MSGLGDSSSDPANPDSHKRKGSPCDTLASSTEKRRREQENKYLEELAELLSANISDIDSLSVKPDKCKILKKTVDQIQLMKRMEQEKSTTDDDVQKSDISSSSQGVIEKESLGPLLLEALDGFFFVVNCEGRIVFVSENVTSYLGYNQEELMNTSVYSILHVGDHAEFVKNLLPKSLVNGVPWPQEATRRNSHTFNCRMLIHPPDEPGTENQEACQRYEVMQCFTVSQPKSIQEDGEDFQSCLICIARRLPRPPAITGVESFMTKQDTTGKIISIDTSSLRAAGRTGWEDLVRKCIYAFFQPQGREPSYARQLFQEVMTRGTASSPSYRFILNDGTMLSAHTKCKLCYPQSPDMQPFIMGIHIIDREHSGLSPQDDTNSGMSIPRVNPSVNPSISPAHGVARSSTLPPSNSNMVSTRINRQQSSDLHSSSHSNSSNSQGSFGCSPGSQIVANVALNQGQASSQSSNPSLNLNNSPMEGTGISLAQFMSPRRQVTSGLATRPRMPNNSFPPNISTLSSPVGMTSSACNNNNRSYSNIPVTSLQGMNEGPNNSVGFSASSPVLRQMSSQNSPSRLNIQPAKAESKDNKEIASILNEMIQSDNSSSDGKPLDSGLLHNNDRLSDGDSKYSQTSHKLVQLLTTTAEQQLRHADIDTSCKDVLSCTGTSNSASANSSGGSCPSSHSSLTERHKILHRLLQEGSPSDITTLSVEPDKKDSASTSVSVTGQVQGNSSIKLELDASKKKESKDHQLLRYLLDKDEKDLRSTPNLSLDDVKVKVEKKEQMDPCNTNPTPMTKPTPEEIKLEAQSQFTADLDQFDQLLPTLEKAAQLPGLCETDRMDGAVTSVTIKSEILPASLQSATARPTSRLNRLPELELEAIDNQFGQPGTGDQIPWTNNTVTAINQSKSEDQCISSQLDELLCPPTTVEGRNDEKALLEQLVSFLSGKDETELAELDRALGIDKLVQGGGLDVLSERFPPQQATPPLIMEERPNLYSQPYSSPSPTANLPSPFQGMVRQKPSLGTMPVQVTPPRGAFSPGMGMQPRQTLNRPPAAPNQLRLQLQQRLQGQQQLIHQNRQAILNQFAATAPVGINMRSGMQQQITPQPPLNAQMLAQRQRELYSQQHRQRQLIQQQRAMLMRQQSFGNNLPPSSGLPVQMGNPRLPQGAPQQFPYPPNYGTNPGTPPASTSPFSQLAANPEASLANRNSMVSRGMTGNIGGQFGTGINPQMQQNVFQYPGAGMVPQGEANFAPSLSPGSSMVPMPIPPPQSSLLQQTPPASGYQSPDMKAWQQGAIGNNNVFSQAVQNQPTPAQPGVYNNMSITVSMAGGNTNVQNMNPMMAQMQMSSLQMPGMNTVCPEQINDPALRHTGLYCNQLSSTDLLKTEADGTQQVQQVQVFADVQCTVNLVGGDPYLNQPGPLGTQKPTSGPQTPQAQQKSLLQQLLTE

BJ [4] = assay: growth inhibition of engineered Ras-driven BJ cells – cell-based, alamar blue fluorescence, cherrypicked samples, dose response (AID 2631); format: functional; settings: Homo sapiens;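 note: confirmatory dose-response assay in RAS-dependent BJ fibroblasts engineered with TERT, LT and ST, with cytotoxicity read by fluorescence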
[5] = luciferase reporter signal suppression in cells – H4 neuroglioma cells, luminescence, dose response (AID 1990); format: functional, cell-based
[6] = alpha-synuclein stem-loop luciferase translation blockers – H4 neuroglioma cells, luminescence, confirmation (AID 1988); format: functional, cell-based
[7] = DRD fibroblast viability loss – cell-based, non-viral oncogenic, luminescence, dose response (AID 1934); format: functional; settings: Homo sapiens
[8] = reduction of Shn3 3'UTR-driven luciferase in osteoblasts – cell-based, Clone20 osteoblasts, firefly luciferase, cherry-picked, dose response (AID 624132); format: functional;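 note: firefly luciferase luminescence from reporter carrying the Shn3 3'UTR in osteoblasts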
BJ [9] = assay: cells; format: functional, cell-based; settings: Homo sapiens
BJ [10] = assay: BJ-TERT fibroblast viability loss – cell-based, RAS-independent, luminescence, dose response (AID 1933); format: functional; settings: Homo sapiens
[11] = Luminescence Cell-Based Dose Response HTS to Identify Inhibitors of 5'UTR Stem-Loop Driven Prion Protein mRNA Translation in H4 Neuroglioblastoma Cells. [Related pubchem assays: 1827 (Project Summary), 1813 (Primary HTS)]; format: functional
BJ [12] = assay: BJ-TERT-LT-ST fibroblast viability loss – cell-based, RAS-independent, luminescence, dose response (AID 1935); format: functional; settings: Homo sapiens;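 note: BJ fibroblasts immortalized with TERT plus LT and ST oncogenes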
[13] = target: T2, Peroxisome proliferator-activated receptor gamma/Nuclear receptor coactivator 3; assay: TR-FRET dose response biochemical High Throughput Screening assay for agonists of the steroid receptor coactivator 3 (SRC-3) recruitment by the peroxisome proliferator-activated receptor gamma (PPAR gamma): non-selective agonists. [Related pubchem assays: 1301 (Confirmation screen.), 1048 (Primary screen.)]; format: functional
[14] = target: T1, Peroxisome proliferator-activated receptor gamma/Nuclear receptor coactivator 2; assay: (§1) TR-FRET dose response biochemical High Throughput Screening assay for agonists of the steroid receptor coactivator 2 (SRC-2) recruitment by the peroxisome proliferator-activated receptor gamma (PPAR gamma): non-selective agonists. [Related pubchem assays: 1297, 1032 ]; format: functional
[15] = target: T3, Peroxisome proliferator-activated receptor gamma/Nuclear receptor coactivator 1; assay: as §1, with “1 (SRC-1)” for “2 (SRC-2)”, “assays (depositor defined):AID1300, AID1808, AID504735, AID631]” for “assays: 1297, 1032 ]”; format: protein assay
[16] = target: T4, Short transient receptor potential channel 4 (Mus musculus, UniProt Q9QUQ5); assay: block of DAMGO-driven TRPC4 calcium entry – cell-based, HEK293 TRPC4/mu-opioid, Fluo-4 calcium, dose response (AID 434942); format: functional;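 note: potency of inhibitors blocking the TRPC4 calcium response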
T4 sequence (Q9QUQ5 whole entry): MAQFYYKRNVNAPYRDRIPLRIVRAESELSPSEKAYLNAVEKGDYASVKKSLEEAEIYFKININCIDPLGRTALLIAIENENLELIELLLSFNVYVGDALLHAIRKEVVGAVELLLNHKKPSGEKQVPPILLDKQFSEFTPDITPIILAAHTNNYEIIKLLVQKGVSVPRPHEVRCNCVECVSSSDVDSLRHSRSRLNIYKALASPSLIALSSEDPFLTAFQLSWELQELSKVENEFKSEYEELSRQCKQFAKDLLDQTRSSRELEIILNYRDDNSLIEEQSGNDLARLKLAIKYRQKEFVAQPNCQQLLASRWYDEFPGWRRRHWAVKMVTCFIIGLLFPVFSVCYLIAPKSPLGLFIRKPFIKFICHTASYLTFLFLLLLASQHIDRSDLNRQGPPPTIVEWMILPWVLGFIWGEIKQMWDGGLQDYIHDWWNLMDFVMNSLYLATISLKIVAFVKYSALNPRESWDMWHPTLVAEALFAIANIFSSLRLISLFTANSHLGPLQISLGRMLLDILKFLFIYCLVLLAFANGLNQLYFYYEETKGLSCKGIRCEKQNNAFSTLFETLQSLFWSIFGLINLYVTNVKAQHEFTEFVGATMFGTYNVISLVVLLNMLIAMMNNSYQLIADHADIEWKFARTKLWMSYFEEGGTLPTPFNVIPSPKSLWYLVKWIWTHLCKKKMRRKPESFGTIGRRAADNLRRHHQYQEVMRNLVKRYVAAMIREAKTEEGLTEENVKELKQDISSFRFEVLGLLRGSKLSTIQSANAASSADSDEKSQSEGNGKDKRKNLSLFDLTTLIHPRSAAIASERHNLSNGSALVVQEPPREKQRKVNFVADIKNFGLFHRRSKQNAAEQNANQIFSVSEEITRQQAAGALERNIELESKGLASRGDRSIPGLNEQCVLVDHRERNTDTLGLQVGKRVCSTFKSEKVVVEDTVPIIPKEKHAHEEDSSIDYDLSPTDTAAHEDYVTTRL

[17] = target: T4, Short transient receptor potential channel 4; assay: calcium entry via TRPC4 opening agents – cell-based, HEK293 TRPC4/mu-opioid, Fluo-4 calcium, dose response (AID 434937); format: functional
[18] = target: T5, Microphthalmia-associated transcription factor (Homo sapiens, UniProt O75030); assay: reducers of TRPM1 reporter luminescence, concentration series – cell-based, SK-MEL-5, cherry-picked, set 3, MITF inhibitor project, dose response (AID 493073); format: functional;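 note: SK-MEL-5 melanoma cells with luciferase driven by the MITF target TRPM1 promoter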
T5 sequence (O75030 whole entry): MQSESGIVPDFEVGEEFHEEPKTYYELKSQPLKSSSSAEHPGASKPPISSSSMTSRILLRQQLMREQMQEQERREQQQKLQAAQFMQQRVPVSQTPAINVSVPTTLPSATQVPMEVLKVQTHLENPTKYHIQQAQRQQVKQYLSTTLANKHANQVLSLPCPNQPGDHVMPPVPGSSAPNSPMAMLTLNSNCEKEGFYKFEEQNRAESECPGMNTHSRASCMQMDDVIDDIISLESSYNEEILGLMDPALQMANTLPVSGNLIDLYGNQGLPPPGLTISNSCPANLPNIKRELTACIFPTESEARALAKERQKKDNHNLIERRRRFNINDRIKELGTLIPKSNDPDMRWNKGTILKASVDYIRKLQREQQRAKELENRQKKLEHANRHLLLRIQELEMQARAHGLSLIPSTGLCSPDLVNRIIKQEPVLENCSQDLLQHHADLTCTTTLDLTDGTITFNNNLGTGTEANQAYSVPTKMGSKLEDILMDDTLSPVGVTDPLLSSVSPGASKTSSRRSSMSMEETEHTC

[19] = target: Luciferin 4-monooxygenase (Photinus pyralis, UniProt P08659); assay: Counter Screen for Luciferase-based Assay Positives. [Related pubchem assays: 620, 618, 411 ]
Sequence of Luciferin 4-monooxygenase (P08659 whole entry): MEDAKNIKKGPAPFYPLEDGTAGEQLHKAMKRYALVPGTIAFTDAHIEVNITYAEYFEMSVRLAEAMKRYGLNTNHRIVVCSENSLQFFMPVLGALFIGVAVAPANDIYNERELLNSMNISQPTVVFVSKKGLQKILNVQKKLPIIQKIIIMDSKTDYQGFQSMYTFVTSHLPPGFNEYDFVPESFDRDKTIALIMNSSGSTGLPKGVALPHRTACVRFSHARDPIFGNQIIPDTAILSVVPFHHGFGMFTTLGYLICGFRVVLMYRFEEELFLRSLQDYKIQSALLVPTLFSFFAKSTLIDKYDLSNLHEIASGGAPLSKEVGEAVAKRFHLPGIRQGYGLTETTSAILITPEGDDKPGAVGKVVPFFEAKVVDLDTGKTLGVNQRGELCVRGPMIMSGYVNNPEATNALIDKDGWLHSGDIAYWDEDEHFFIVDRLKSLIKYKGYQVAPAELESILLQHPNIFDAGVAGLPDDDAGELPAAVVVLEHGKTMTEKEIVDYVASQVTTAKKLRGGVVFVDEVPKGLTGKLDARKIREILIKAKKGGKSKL

HT-1080 = assay: HT1080 cell viability loss – fluorescence readout (AID 620); format: functional, cell-based; settings: Homo sapiens
[20] = Luminescence Cell-Based Dose Retest to Confirm Inhibitors of Cancer Stem Cells. [Related pubchem assays (depositor defined):AID2717, AID2721]; format: functional; settings: Homo sapiens

T2 sequence (P37231 whole entry): as the sequence (P37231 whole entry) above
T2 sequence (Q9Y6Q9 whole entry, further chain): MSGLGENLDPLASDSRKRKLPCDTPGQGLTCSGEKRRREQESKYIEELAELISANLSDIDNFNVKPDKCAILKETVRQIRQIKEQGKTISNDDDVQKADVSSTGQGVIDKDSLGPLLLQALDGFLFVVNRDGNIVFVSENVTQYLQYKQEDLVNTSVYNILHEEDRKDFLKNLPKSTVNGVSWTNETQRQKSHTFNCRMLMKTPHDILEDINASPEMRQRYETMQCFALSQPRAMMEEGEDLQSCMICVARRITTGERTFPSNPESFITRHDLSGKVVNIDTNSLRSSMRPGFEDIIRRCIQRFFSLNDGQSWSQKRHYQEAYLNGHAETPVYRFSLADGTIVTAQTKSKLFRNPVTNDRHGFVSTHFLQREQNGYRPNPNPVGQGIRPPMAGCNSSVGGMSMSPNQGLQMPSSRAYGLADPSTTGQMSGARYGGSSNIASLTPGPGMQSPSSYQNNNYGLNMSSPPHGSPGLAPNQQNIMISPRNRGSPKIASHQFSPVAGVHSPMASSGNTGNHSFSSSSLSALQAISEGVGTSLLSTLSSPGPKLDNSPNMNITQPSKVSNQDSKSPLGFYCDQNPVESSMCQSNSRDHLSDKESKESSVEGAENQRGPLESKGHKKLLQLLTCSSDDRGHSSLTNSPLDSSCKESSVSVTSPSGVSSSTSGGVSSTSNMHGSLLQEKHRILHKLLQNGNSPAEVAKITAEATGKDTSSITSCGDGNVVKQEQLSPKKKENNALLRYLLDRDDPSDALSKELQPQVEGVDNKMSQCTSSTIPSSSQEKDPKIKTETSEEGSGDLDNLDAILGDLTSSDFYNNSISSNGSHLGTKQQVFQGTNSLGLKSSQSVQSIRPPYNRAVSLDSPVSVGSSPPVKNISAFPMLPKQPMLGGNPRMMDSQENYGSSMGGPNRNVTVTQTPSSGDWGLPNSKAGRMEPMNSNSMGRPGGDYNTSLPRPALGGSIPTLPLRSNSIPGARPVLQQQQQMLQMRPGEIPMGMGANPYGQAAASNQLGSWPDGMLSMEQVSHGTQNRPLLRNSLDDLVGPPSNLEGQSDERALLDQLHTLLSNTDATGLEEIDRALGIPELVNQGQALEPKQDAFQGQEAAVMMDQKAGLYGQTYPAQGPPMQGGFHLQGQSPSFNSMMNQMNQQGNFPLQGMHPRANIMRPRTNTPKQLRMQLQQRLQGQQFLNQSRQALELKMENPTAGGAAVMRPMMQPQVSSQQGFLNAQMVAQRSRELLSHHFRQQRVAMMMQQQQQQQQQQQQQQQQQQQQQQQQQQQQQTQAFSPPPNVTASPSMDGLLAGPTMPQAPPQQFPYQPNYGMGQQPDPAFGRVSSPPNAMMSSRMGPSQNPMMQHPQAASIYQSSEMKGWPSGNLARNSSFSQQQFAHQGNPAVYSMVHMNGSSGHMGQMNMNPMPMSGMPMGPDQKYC

COc1ccc(Nc2nc(S(=O)(=O)c3ccc(C)cc3)c(Cl)s2)cc1
EC50 [1]: > 79.4 µM (not active) | EC50 [2]: > 79.4 µM (not active) | EC50 [3]: > 79.4 µM (not active)

CC1(C)CC(=O)c2c(nc(SCC(=O)Nc3nsc(-c4ccccc4)n3)c(C#N)c2-c2ccccc2)C1
EC50 (BJ [4]): 0.596 µM (active) | EC50 [5]: > 120 µM (not active) | EC50 [6]: 13.4 µM (active) | EC50 [7]: 35 µM (active) | AC50 [8]: > 70 µM (inactive) | EC50 (BJ [9]): 7.76 µM (active) | EC50 (BJ [10]): > 150 µM (not active) | EC50 [11]: > 120 µM (not active) | EC50 (BJ [12]): > 150 µM (not active)

COc1ccc2sc3c(O)nc4ccccc4c3c2c1
EC50 [1]: 12.1 µM (not active) | EC50 [2]: 11.2 µM (not active) | EC50 [3]: 11 µM (not active)

Cc1ccc(C(=O)C2=C(O)C(=O)N(c3ncccn3)C2c2ccc(Cl)cc2)o1 (centres undefined)
EC50 [13]: > 79.4 µM (not active) | EC50 [14]: 35.8 µM (not active) | EC50 [15]: > 79.4 µM (inactive)

O=[N+]([O-])c1cc2c(cc1CNCCc1ccc3c(c1)OCO3)OCO2
EC50 [16]: 1.06 µM (active) | EC50 [17]: 3.35 µM (active)

O=C(Nc1cc(-c2nc3ncccc3o2)ccc1Cl)c1ccc([N+](=O)[O-])o1
AC50 [18]: 5.76 µM (active)

c1ccc(-n2ncc3c2ncn2nc(-c4ccco4)nc32)cc1
EC50 [1]: 16.2 µM (not active) | EC50 [2]: > 79.4 µM (not active) | EC50 [3]: > 79.4 µM (not active)

COc1cccc(CNC(=O)CSc2cc(=O)n(C)c3ccccc23)c1
EC50 [13]: > 79.4 µM (not active) | EC50 [14]: > 79.4 µM (not active) | EC50 [15]: > 79.4 µM (inactive)

CC1CCc2nc(NC(=O)CN3CCN(Cc4ccc5c(c4)OCO5)CC3)sc2C1 (centres undefined)
EC50 [16]: 0.299 µM (active)

O=C(Nc1ccc(N2CCCCC2)cc1)c1ccccc1
EC50 [19]: 1.28 µM (active) | EC50 [1]: > 79.4 µM (not active) | EC50 [2]: > 79.4 µM (not active) | EC50 (HT-1080): > 50 µM (not active) | EC50 [3]: > 79.4 µM (not active)

Cn1cnc(Sc2[nH]cnc3ncnc2-3)c1[N+](=O)[O-]
EC50 (BJ [4]): > 133 µM (inactive) | AC50 [20]: 1.42 µM (active) | EC50 [7]: 13 µM (active) | EC50 (BJ [9]): 8.4 µM (active) | EC50 (BJ [10]): > 150 µM (not active) | EC50 (BJ [12]): > 150 µM (not active)
